Measured values from US20210308034A1, “PREBIOTIC COMPOSITIONS AND METHODS FOR MAINTAINING A HEALTHY SKIN MICROBIOTA” (KIMBERLY-CLARK WORLDWIDE, INC., priority 2018, published 2021).

How the values were obtained:
Type in all cases: cell-based
[1] = test system: commensal and pathogenic skin bacteria; assay: Carbohydrate Screening Test Method, all bacteria codes tested; settings: ten bacteria codes of Table 1
From the text: (§1) After creating desired ratios of various commensal skin bacteria in a healthy skin microbiome, 188 different carbohydrate sources were screened as the next step in determining potential prospects for skin microbiota balancing agents. The screening process was set up to determine which carbohydrate sources promoted commensal and/or pathogenic bacteria as well as to obtain individual and combinations of carbohydrate sources that could serve as microbiota balancing agents that can support or maintain the healthy proportions of commensal skin bacteria of Corynebacterium, Staphylococcus, and Micrococcus. The screening was conducted utilizing Biolog phenotype microarray plates (Hayward, Calif.). Table 1 provides a coded list of the commensal and pathogenic skin bacteria that the carbohydrates were screened against.
(§2) The Bacteria Codes B, D, E, I, and J are commensal bacteria and are shaded in Table 2 for references purposes. The bacteria codes were each placed in a carbon microarray plate and screened through the Carbohydrate Screening Test Method, as described in the Test Methods section herein. If a particular bacteria code utilized a specific carbohydrate source as described in the Carbohydrate Screening Test Method, then the corresponding cell in Table 2 was marked with a Y (short for “Yes”).
(§3) The study employed 10 representative skin bacteria; Staphylococcus epidermidis ATCC 14990, Staphylococcus epidermidis M23864:W2, Staphylococcus aureus ATCC 6538, Staphylococcus aureus ATCC 25904 (Newman), Pseudomonas aeruginosa ATCC 9027, Micrococcus luteus ATCC […], Micrococcus luteus SK58, Klebsiella pneumoniae ATCC BAA-2146, Corynebacterium amycolatum SK46, and Corynebacterium minutissimum ATCC 23348. Cultures were started from freezer bead stocks by placing a single bead into 20 mL of tryptic soy broth (TSB) for all organisms except C. amycolatum SK46 and C. minutissimum ATCC 23348, which were placed into brain heart infusion (BHI) broth. Cultures were grown for about 24 hr at 37° C. except M. luteus ATCC 49732 and M. luteus SK58, which were grown at 30° C. A passage of the culture was made using a sterile swab and streaked onto two M9*2 agar plates to prepare the incubated culture for the phenotype microarray pate according to Table 4. Plates were incubated for about 24 hr at 37° C. except for M. luteus ATCC 49732 and M. luteus SK58, which were incubated at 30° C. for 24 hr.
(§4) All cultures were harvested and washed before inoculation into the carbon microarray plate (BiOLOG, Hayward Calif.), with Biolog Plates PM1 and PM2 each having a source definition of Carbon. The bacteria on the M9*2 agar was suspended via agitation with an inoculating loop in 1 mL of M9*1 media for collection in a 1.7 mL micro centrifuge tube, as noted in Table 4. The bacteria was suspended again in M9*1 media, agitated, and collected into the same 1.7 mL microcentrifuge tube used in the previous step. The tube was centrifuged for 5 minutes at 4,000×G, supernatant decanted, the pellet was resuspended in 1 mL of M9*1 media, and vortex. This washing process was repeated for a total of 4 times.
A tenfold dilution in M9*1 media was performed using 1 mL of the washed bacterial culture.

[2] = test system: Staphylococcus epidermidis (M23864:W2); assay: Carbohydrate Screening Test Method (Biolog phenotype microarray), Bacteria Code J; settings: Commensal; carbon microarray plate, OD 600 nm, 36 hr, 33° C.; positive = more than 0.05 OD units above zero; blank cell = not utilized
From the text: as §1, §2
(§5) To do so, the respective microarray data for the 79 carbohydrate sources was run through the GrowthRates 2.1 program to obtain growth parameters, such as growth rates and maximum yield data as described by the Belingham Research Institute, Hall, B. G., H. Acar and M. Barlow. 2014 Growth Rates Made Easy. Mol. Biol. Evol. 31:232-238 doi:10.1093/molbev/mst197. The max yield parameters generated were utilized to calculate ratios of tested commensal bacteria. The ratios calculated were compared back to the desired ratios identified above (Corynebacterium to Staphylococcus of 1.3, Corynebacterium to Micrococcus of 1.4, and Staphylococcus to Micrococcus of 1.1).
(§6) As an example of this methodology used to calculate the commensal bacteria ratios and the difference between the calculated ratios and the desired ratios, an example code from Table 3 will be described. […] The max yields were then used to calculate ratios the bacteria would reach in a co-culture.

[3] = test system: Pseudomonas aeruginosa (ATCC 9027); settings: Pathogenic; carbon microarray plate, OD 600 nm, 36 hr, 33° C.; positive = more than 0.05 OD units above zero; blank cell = not utilized
From the text: as §1, §2, §3, §4
A tenfold dilution in M9*1 media was performed using 1 mL of the washed bacterial culture. Of the tenfold dilution 200 μL was placed in an untreated 96-well plate (Falcon, Pasadena Tx.) for an initial optical density (OD) reading at a wavelength of 600 nm. The OD was used to correlate to colony forming units (CFU) per milliliter by using linear regression lines for each organism.

[4] = test system: Corynebacterium jeikum (ATCC 33033); assay: Carbohydrate Screening Test Method (Biolog phenotype microarray), Bacteria Code B; settings: Commensal; carbon microarray plate, OD 600 nm, 36 hr, 33° C.; positive = more than 0.05 OD units above zero; blank cell = not utilized
Method: The screening process was set up to determine which carbohydrate sources promoted commensal and/or pathogenic bacteria as well as to obtain individual and combinations of carbohydrate sources that could serve as microbiota balancing agents that can support or maintain the healthy proportions of commensal skin bacteria of Corynebacterium, Staphylococcus, and Micrococcus. The screening was conducted utilizing Biolog phenotype microarray plates (Hayward, Calif.). Table 1 provides a coded list of the commensal and pathogenic skin bacteria that the carbohydrates were screened against.
as §2
as §5, with “2014 Growth Rates Made Easy.” left out, “31:232-238 doi:10.1093/molbev/mst197.” left out
as §6
A passage of the culture was made using a sterile swab and streaked onto two M9*2 agar plates to prepare the incubated culture for the phenotype microarray pate according to Table 4.
All cultures were harvested and washed before inoculation into the carbon microarray plate (BiOLOG, Hayward Calif.), with Biolog Plates PM1 and PM2 each having a source definition of Carbon. The bacteria on the M9*2 agar was suspended via agitation with an inoculating loop in 1 mL of M9*1 media for collection in a 1.7 mL micro centrifuge tube, as noted in Table 4.

[5] = test system: Micrococcus luteus (SK58); assay: Carbohydrate Screening Test Method (Biolog phenotype microarray), Bacteria Code E; settings: Commensal; carbon microarray plate, OD 600 nm, 36 hr, 33° C.; positive = more than 0.05 OD units above zero; blank cell = not utilized
From the text: as §1, §2, §5, §6

[6] = test system: Klebsiella pneumoniae (ATCC BAA-2146); settings: Pathogenic; carbon microarray plate, OD 600 nm, 36 hr, 33° C.; positive = more than 0.05 OD units above zero; blank cell = not utilized
From the text: as §1
Table 2 provides the results of screening various carbohydrate sources against the commensal and pathogenic bacteria codes listed in Table 1. The Bacteria Codes B, D, E, I, and J are commensal bacteria and are shaded in Table 2 for references purposes. The bacteria codes were each placed in a carbon microarray plate and screened through the Carbohydrate Screening Test Method, as described in the Test Methods section herein. If a particular bacteria code utilized a specific carbohydrate source as described in the Carbohydrate Screening Test Method, then the corresponding cell in Table 2 was marked with a Y (short for “Yes”). […] Many of the carbohydrate sources were utilized by both commensal and pathogenic bacteria, and as such, would not provide an advantage for selective growth of the commensal bacteria. However, some of the carbohydrate sources were only used by commensal bacteria and were identified for further testing as described herein.
as §3, §4
A tenfold dilution in M9*1 media was performed using 1 mL of the washed bacterial culture. Of the tenfold dilution 200 μL was placed in an untreated 96-well plate (Falcon, Pasadena Tx.) for an initial optical density (OD) reading at a wavelength of 600 nm. The OD was used to correlate to colony forming units (CFU) per milliliter by using linear regression lines for each organism. […]

| Compound | utilization by the bacteria codes tested [1] | Carbohydrate Screening Results, Bacteria Code J [2] | Carbohydrate Screening Results, Bacteria Code F [3] | Carbohydrate Screening Results, Bacteria Code B [4] | Carbohydrate Screening Results, Bacteria Code E [5] | Carbohydrate Screening Results, Bacteria Code C [6] |
| --- | --- | --- | --- | --- | --- | --- |
| 2,3-Butanone | not utilized by any of the bacteria |  |  |  |  |  |
| C[N+](C)(C)CC(O)CC(=O)[O-] (racemic) [D,L-Carnitine] |  | Y | Y |  |  |  |
| O=P(O)(O)OCC(O)CO (racemic) [D,L-α-Glycerol-Phosphate] |  | Y |  | Y | Y |  |
| Nc1ncnc2c1ncn2C1CC(O)C(CO)O1 (stereo not shown) [2-Deoxy Adenosine] | not utilized by any of the bacteria |  |  |  |  |  |
| O=CC[C@H](O)[C@H](O)CO [2-Deoxy-D-Ribose] | not utilized by any of the bacteria |  |  |  |  |  |
| O=C(O)c1ccccc1O [2-Hydroxy Benzoic Acid] | not utilized by any of the bacteria |  |  |  |  |  |
| OC[C@@H](O)[C@@H](O)[C@@H](O)CO [Adonitol] |  |  | Y | Y | Y | Y |
| O=C[C@H](O)[C@@H](O)[C@@H](O)[C@H](O)CO [D-Galactose] |  | Y | Y | Y | Y | Y |
| O=C(O)[C@H](O)[C@@H](O)[C@H](O)[C@H](O)CO [D-Gluconic Acid] |  | Y | Y | Y | Y | Y |
| O=C[C@H](O)[C@@H](O)[C@H](O)[C@H](O)C(=O)O [D-Glucuronic Acid] |  |  | Y | Y | Y | Y |
| OC[C@H]1O[C@H](OCC2O[C@@H](O)[C@H](O)[C@@H](O)[C@@H]2O)[C@H](O)[C@@H](O)[C@H]1O (stereo partly drawn) [D-Melibiose] |  |  | Y | Y | Y | Y |
| O=C(CO)[C@H](O)[C@H](O)[C@H](O)CO [D-Psicose] |  |  | Y | Y | Y | Y |
| OC[C@@H](O)[C@@H](O)[C@H](O)[C@@H](O)CO [D-Sorbitol] |  |  | Y |  | Y | Y |
| NCC(O)c1ccc(O)cc1 [D.L-Octopamine] |  | Y | Y |  |  | Y |
| OCC(O)CO [Glycerol] |  | Y |  | Y |  | Y |
| CC(=O)N[C@@H](CO)[C@@H](O)[C@H](O)[C@H](O)CO [N-Acetyl-D-Glucosaminitol] |  | Y |  |  |  |  |
| NCCc1ccc(O)cc1 [Tyramine] |  |  | Y | Y |  | Y |
| OC[C@H]1O[C@@H]2O[C@H]3[C@H](O)[C@@H](O)[C@@H](O[C@H]4[C@H](O)[C@@H](O)[C@@H](O[C@H]5[C@H](O)[C@@H](O)[C@@H](O[C@H]6[C@H](O)[C@@H](O)[C@@H](O[C@H]7[C@H](O)[C@@H](O)[C@@H](O[C@H]8[C@H](O)[C@@H](O)[C@@H](O[C@H]9[C@H](O)[C@@H](O)[C@@H](O[C@H]1[C@H](O)[C@H]2O)O[C@@H]9CO)O[C@@H]8CO)O[C@@H]7CO)O[C@@H]6CO)O[C@@H]5CO)O[C@@H]4CO)O[C@@H]3CO [γ-Cyclodextrin] |  | Y |  |  |  |  |
| NCCCCC(=O)O [δ-Amino Valeric Acid] |  | Y |  |  |  |  |
| Dextrin |  | Y |  |  |  | Y |
| Gentiobiose |  |  | Y |  |  | Y |
| Mannan |  | Y |  |  |  |  |
